Experimental data: patent US12319701B2, “Antagonists of the muscarinic acetylcholine receptor M4” (priority 2019, dated 2025)

Target: T1, Human M4 (Homo sapiens, UniProt P08173)
T1 construct: expressed in transfected cells; host or cells: CHO-K1 (ATCC), stably co-expressing chimeric G protein Gqi5
T1 sequence (P08173 1-479): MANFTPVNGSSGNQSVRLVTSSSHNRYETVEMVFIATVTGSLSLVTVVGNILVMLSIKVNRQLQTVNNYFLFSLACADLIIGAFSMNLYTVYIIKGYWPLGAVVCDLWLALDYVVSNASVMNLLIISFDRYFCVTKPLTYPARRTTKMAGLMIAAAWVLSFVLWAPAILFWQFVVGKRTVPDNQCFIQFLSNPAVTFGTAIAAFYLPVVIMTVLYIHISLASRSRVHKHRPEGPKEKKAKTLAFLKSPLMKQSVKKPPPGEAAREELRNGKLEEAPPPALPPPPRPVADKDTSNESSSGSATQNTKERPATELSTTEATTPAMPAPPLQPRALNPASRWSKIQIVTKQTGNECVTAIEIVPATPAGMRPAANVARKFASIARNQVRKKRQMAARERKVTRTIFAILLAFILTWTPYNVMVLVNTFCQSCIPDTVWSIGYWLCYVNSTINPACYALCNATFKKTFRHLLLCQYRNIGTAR
Assay: mAChR M4 cell-based functional assay (calcium flux, Fluo-4, M4/Gqi5/CHO-K1 cells)
Details: for remaining activity at 30 µM: CHO-K1, read-out: Human M4 Emin (%), % ACh maximum at 30 μM
Description: Human or rat M4 cDNA, along with the chimeric G protein Gqi5, were transfected into Chinese hamster ovary (CHO-K1) cells purchased from the American Type Culture Collection using Lipofectamine2000. M4/Gqi5/CHO cells were grown in Ham's F-12 medium containing 10% heat-inactivated fetal bovine serum (FBS), 20 mM HEPES, 500 μg/mL 418 sulfate, and 200 μg/mL Hygromycin B.
For high throughput measurement of agonist-evoked increases in intracellular calcium, CHO-K1 cells stably expressing muscarinic receptors were plated in growth medium lacking 418 and hygromycin at 15,000 cells/20 μL/well in Greiner 384-well black-walled, tissue culture (TC)-treated, clear-bottom plates (VWR). Cells were incubated overnight at 37° C. and 5% CO2. The next day, cells were washed using an ELX 405 (BioTek) with assay buffer; the final volume was then aspirated to 20 μL. Next, 20 μL of a 2.3 μM stock of Fluo-4/acetoxymethyl ester (Invitrogen, Carlsbad, CA), prepared as a 2.3 mM stock in DMSO and mixed in a 1:1 ratio with 10% (w/v) Pluronic F-127 and diluted in assay buffer, was added to the wells and the cell plates were incubated for 50 min at 37° C. and 5% CO2. Dye was removed by washing with the ELX 405 and the final volume was aspirated to 20 μL. Compound master plates were formatted in a 10 point concentration-response curve (CRC) format (1:3 dilutions) in 100% DMSO with a starting concentration of 10 or 1 mM using a BRAVO liquid handler (Agilent). Test compound CRCs were then transferred to daughter plates (240 nL) using the Echo acoustic plate reformatter (Labcyte, Sunnyvale, CA) and then diluted into assay buffer (40 μL) to a 2× stock using a Thermo Fisher Combi (Thermo Fisher Scientific, Waltham, MA).
Calcium flux was measured using the Functional Drug Screening System (FDSS) 6000 or 7000 (Hamamatsu Corporation, Tokyo, Japan) as an increase in the fluorescent static ratio. Compounds were applied to cells (20 μL, 2×) using the automated system of the FDSS at 2 seconds into the protocol and the data were collected at 1 Hz. At 143 s, 10 μL of an EC20 concentration of the muscarinic receptor agonist acetylcholine was added (5×), followed by the addition of 12 μL of an EC80 concentration of acetylcholine at the 268 s time point (5×). Agonist activity was analyzed as a concentration-dependent increase in calcium mobilization upon compound addition. Positive allosteric modulator activity was analyzed as a concentration-dependent increase in the EC20 acetylcholine response. Antagonist activity was analyzed as a concentration-dependent decrease in the ECK) acetylcholine response; for the purposes of the tables herein, an IC50 (inhibitory concentration 50) was calculated as a concentration-dependent decrease of the response elicited by an ECK) concentration of acetylcholine. Concentration-response curves were generated using a four-parameter logistical equation in XLFit curve fitting software (IDBS, Bridgewater, NJ) for Excel (Microsoft, Redmond, WA) or Prism (GraphPad Software, Inc., San Diego, CA) or the Dotmatics software platform (Dotmatics, Bishop's Stortford, UK).
Compounds were synthesized as described above. Activity (IC50 and Emin) was determined in the mAChR M4 cell-based functional assay as described above and the data are shown in Table 2.

Row | SMILES | IC50 [nM] | remaining activity at 30 µM [%]
1 | Fc1ccc(F)c(-c2nnc(N[C@H]3C[C@@H]4CN(CC5CCOCC5)C[C@@H]4C3)c3ccsc23)c1 [compound 2, 7-(2,5-difluorophenyl)-N-((3aR,5s,6aS)-2-((tetrahydro-2H-pyran-4-yl)methyl)octahydrocyclopenta[c]pyrrol-5-yl)thieno[2,3-d]pyridazin-4-amine] | 2.91 | 3
2 | Cc1ccc(F)cc1-c1nnc(N[C@H]2C[C@@H]3CN(CC4CCOCC4)C[C@@H]3C2)c2ccsc12 [compound 3, 7-(5-fluoro-2-methylphenyl)-N-((3aR,5s,6aS)-2-((tetrahydro-2H-pyran-4-yl)methyl)octahydrocyclopenta[c]pyrrol-5-yl)thieno[2,3-d]pyridazin-4-amine] | 5.11 | 3
3 | Cc1ccc(C)c(-c2nnc(N[C@H]3C[C@@H]4CN(CC5CCOCC5)C[C@@H]4C3)c3ccsc23)c1 [compound 4, 7-(2,5-dimethylphenyl)-N-((3aR,5s,6aS)-2-((tetrahydro-2H-pyran-4-yl)methyl)octahydrocyclopenta[c]pyrrol-5-yl)thieno[2,3-d]pyridazin-4-amine] | 13.6 | 3
4 | Cc1ccccc1-c1nnc(N[C@H]2C[C@@H]3CN(CC4CCOCC4)C[C@@H]3C2)c2ccsc12 [compound 5, N-((3aR,5s,6aS)-2-((tetrahydro-2H-pyran-4-yl)methyl)octahydrocyclopenta[c]pyrrol-5-yl)-7-(o-tolyl)thieno[2,3-d]pyridazin-4-amine] | 2.47 | 4
5 | COc1ccccc1-c1nnc(N[C@H]2C[C@@H]3CN(CC4CCOCC4)C[C@@H]3C2)c2ccsc12 [compound 6, 7-(2-methoxyphenyl)-N-((3aR,5s,6aS)-2-((tetrahydro-2H-pyran-4-yl)methyl)octahydrocyclopenta[c]pyrrol-5-yl)thieno[2,3-d]pyridazin-4-amine] | 8080 | 20
6 | Fc1ccccc1-c1nnc(N[C@H]2C[C@@H]3CN(CC4CCOCC4)C[C@@H]3C2)c2ccsc12 [compound 7, 7-(2-fluorophenyl)-N-((3aR,5s,6aS)-2-((tetrahydro-2H-pyran-4-yl)methyl)octahydrocyclopenta[c]pyrrol-5-yl)thieno[2,3-d]pyridazin-4-amine] | 7690 | 15
7 | c1ccc(-c2nnc(N[C@H]3C[C@@H]4CN(CC5CCOCC5)C[C@@H]4C3)c3ccsc23)cc1 [compound 8, 7-phenyl-N-((3aR,5s,6aS)-2-((tetrahydro-2H-pyran-4-yl)methyl)octahydrocyclopenta[c]pyrrol-5-yl)thieno[2,3-d]pyridazin-4-amine] | 4.72 | 3
8 | Cn1cc2cc(-c3nnc(N[C@H]4C[C@@H]5CN(CC6CCOCC6)C[C@@H]5C4)c4ccsc34)ccc2n1 [compound 9, 7-(2-methyl-2H-indazol-5-yl)-N-((3aR,5s,6aS)-2-((tetrahydro-2H-pyran-4-yl)methyl)octahydrocyclopenta[c]pyrrol-5-yl)thieno[2,3-d]pyridazin-4-amine] | 2.96 | 3
9 | Cn1cc2cc(-c3nnc(N[C@H]4C[C@@H]5CN(CC6CCOCC6)C[C@@H]5C4)c4sccc34)ccc2n1 [compound 13, 4-(2-methyl-2H-indazol-5-yl)-N-((3aR,5s,6aS)-2-((tetrahydro-2H-pyran-4-yl)methyl)octahydrocyclopenta[c]pyrrol-5-yl)thieno[2,3-d]pyridazin-7-amine] | 0.697 | 3
10 | Fc1cc(F)c(F)c(-c2nnc(N[C@H]3C[C@@H]4CN(CC5CCOCC5)C[C@@H]4C3)c3ccsc23)c1 [compound 16, N-((3aR,5s,6aS)-2-((tetrahydro-2H-pyran-4-yl)methyl)octahydrocyclopenta[c]pyrrol-5-yl)-7-(2,3,5-trifluorophenyl)thieno[2,3-d]pyridazin-4-amine] | 1.71 | 4
11 | Cc1c(-c2nnc(N[C@H]3C[C@@H]4CN(CC5CCOCC5)C[C@@H]4C3)c3ccsc23)ccc2nn(C)cc12 [compound 17, 7-(2,4-dimethyl-2H-indazol-5-yl)-N-((3aR,5s,6aS)-2-((tetrahydro-2H-pyran-4-yl)methyl)octahydrocyclopenta[c]pyrrol-5-yl)thieno[2,3-d]pyridazin-4-amine] | 0.65 | 3
12 | [2H]C([2H])(C1CCOCC1)N1C[C@H]2C[C@H](Nc3nnc(-c4cc(F)ccc4F)c4sccc34)C[C@H]2C1 [compound 18, 7-(2,5-difluorophenyl)-N-((3aR,5s,6aS)-2-((tetrahydro-2H-pyran-4-yl)methyl-d2)octahydrocyclopenta[c]pyrrol-5-yl)thieno[2,3-d]pyridazin-4-amine] | 3 | 3

Results, then the molecule that gave them:

Row | IC50 [nM] | remaining activity at 30 µM [%] | SMILES
13 | 204 | 3 | Clc1nnc(N[C@H]2C[C@@H]3CN(CC4CCOCC4)C[C@@H]3C2)c2ccsc12 [compound 1, 7-chloro-N-((3aR,5s,6aS)-2-((tetrahydro-2H-pyran-4-yl)methyl)octahydrocyclopenta[c]pyrrol-5-yl)thieno[2,3-d]pyridazin-4-amine]
14 | 6.25 | 4 | Fc1ccc(F)c(-c2nnc(N[C@H]3C[C@@H]4CN(CC5CCOCC5)C[C@@H]4C3)c3sccc23)c1 [compound 10, 4-(2,5-difluorophenyl)-N-((3aR,5s,6aS)-2-((tetrahydro-2H-pyran-4-yl)methyl)octahydrocyclopenta[c]pyrrol-5-yl)thieno[2,3-d]pyridazin-7-amine]
15 | 1.6 | 3 | Cc1ccc(F)cc1-c1nnc(N[C@H]2C[C@@H]3CN(CC4CCOCC4)C[C@@H]3C2)c2sccc12 [compound 11, 4-(5-fluoro-2-methylphenyl)-N-((3aR,5s,6aS)-2-((tetrahydro-2H-pyran-4-yl)methyl)octahydrocyclopenta[c]pyrrol-5-yl)thieno[2,3-d]pyridazin-7-amine]
16 | 284 | 5 | Clc1nnc(N[C@H]2C[C@@H]3CN(CC4CCOCC4)C[C@@H]3C2)c2sccc12 [compound 12, 4-chloro-N-((3aR,5s,6aS)-2-((tetrahydro-2H-pyran-4-yl)methyl)octahydrocyclopenta[c]pyrrol-5-yl)thieno[2,3-d]pyridazin-7-amine]
17 | 1.46 | 4 | c1ccc(-c2nnc(N[C@H]3C[C@@H]4CN(CC5CCOCC5)C[C@@H]4C3)c3sccc23)cc1 [compound 14, 4-phenyl-N-((3aR,5s,6aS)-2-((tetrahydro-2H-pyran-4-yl)methyl)octahydrocyclopenta[c]pyrrol-5-yl)thieno[2,3-d]pyridazin-7-amine]
18 | 2.31 | 3 | Fc1ccccc1-c1nnc(N[C@H]2C[C@@H]3CN(CC4CCOCC4)C[C@@H]3C2)c2sccc12 [compound 15, 4-(2-fluorophenyl)-N-((3aR,5s,6aS)-2-((tetrahydro-2H-pyran-4-yl)methyl)octahydrocyclopenta[c]pyrrol-5-yl)thieno[2,3-d]pyridazin-7-amine]
